Reference: US11344510B2, “Arylcyclohexylamine derivatives and their use in the treatment of psychiatric disorders” (Gilgamesh Pharmaceuticals, Inc., priority 2019, dated 2022)

Legend:
[1] = RLM stability (Low Activity); assay type: in vitro ADME, Sprague Dawley rats; details: male, Sprague Dawley, rat, liver microsomes, pH 7.4, Condition 1 (Low Activity), 0.50 mg protein/mL
Procedure: (§1) RLM Stability (Low Activity). Pooled RLM from male Sprague Dawley rats (XenoTech R1000) were used. Microsomal incubations were carried out in multi-well plates. Liver microsomal incubation medium consisted of PBS (100 mM, pH 7.4), MgCl2 (1 mM), and NADPH (1 mM), with 0.50 mg of liver microsomal protein per mL. Control incubations were performed by replacing the NADPH-cofactor system with PBS. Test compounds (1 μM, final solvent concentration 1.0%) were incubated with microsomes at 37° C. with constant shaking. Six time points over 60 minutes were analyzed, with 60 μL aliquots of the reaction mixture being drawn at each time point. The reaction aliquots were stopped by adding 180 μL of cold (4° C.) acetonitrile containing 200 ng/mL tolbutamide and 200 ng/mL labetalol as internal standards (IS), followed by shaking for 10 minutes, and then protein sedimentation by centrifugation at 4000 rpm for 20 minutes at 4° C. Supernatant samples (80 μL) were diluted with water (240 μL) and analyzed for parent compound remaining using a fit-for-purpose liquid chromatography-tandem mass spectrometry (LC-MS/MS) method.
(§2) Data Analysis. The elimination constant (kel), half-life (t1/2) and intrinsic clearance (Clint) were determined in a plot of […] versus time, using linear regression analysis.

[2] = HLM stability (Low Activity, Alternative Method); assay type: in vitro ADME; details: both sexes, human, liver microsomes, pH 7.4, Condition 1 column, values marked *: Low Activity, 0.50 mg protein/mL
Procedure: as §1, with “HLM” for “RLM”, “Activity, Alternative Method).” for “Activity).”, “from adult” for “from”, “and female donors (Corning 452117)” for “Sprague Dawley rats (XenoTech R1000)”
as §2

[3] = molecular target: T1, norepinephrine transporter (NET) (Homo sapiens, UniProt P23975); experiment: Fluorescent substrate uptake inhibition, NET; assay type: cell-based; details: for inhibition at 10 µM: HEK293 cells expressing NET
T1 construct: expressed in transfected cells; host or cells: HEK293
T1 sequence (P23975 whole entry, species assumed): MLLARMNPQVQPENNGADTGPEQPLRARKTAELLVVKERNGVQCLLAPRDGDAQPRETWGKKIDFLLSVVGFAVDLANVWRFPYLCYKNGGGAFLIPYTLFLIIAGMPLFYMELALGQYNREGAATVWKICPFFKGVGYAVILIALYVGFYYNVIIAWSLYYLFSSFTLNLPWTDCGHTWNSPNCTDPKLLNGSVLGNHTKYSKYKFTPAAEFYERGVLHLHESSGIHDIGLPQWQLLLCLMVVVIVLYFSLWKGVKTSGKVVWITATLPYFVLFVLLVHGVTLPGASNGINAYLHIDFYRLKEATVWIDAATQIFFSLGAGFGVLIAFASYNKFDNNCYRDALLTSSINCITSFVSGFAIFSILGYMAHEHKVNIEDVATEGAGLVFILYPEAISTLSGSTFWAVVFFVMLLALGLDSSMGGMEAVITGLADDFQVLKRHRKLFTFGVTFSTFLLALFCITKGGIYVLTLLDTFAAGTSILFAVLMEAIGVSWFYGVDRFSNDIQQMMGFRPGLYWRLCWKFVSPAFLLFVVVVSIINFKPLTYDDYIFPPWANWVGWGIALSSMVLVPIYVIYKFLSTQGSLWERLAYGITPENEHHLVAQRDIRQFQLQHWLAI
Procedure: (§3) Uptake Inhibition. The ability of test compounds to block monoamine uptake by SERT, NET, DAT, and VMAT2 was determined using the Neurotransmitter Transporter Uptake Assay Kit manufactured by Molecular Devices (Cat #R8173). Briefly, stably transfected cells expressing the MAT of interest (HEK293 cells for SERT and NET; CHO cells for DAT) were grown and plated into 384-well plates at a concentration of 20,000 cells per well. Plates were then incubated for 16-20 h at 37° C. and 5% CO2. The medium was then aspirated and replaced with 25 μL of assay buffer (20 mM HEPES in HBSS, containing 0.1% BSA) containing the test compounds at the appropriate concentrations. Plates were then centrifuged at 300 rpm for 15 s and then incubated at 37° C. for 30 minutes. At this time, 25 μL of the proprietary fluorescent dye solution was added, the plates were incubated at 37° C. for 60 minutes, and then fluorescence was quantified on a plate reader (excitation wavelength=440 nm, emission wavelength=520 nm). The proprietary dye solution contains a mixture of 1) a fluorescent dye that mimics the endogenous substrates of MATs and is thereby actively transported to the intracellular compartment in the absence of an inhibitor and 2) a masking dye that inhibits the fluorescence of dye 1 in the extracellular compartment. Therefore, the overall fluorescence of the system increases as the fluorescent dye is transported into the cells.

[4] = molecular target: MK-801 binding site of the N-methyl-D-aspartate receptor (NMDAR); experiment: NMDAR radioligand binding with [3H]MK-801, Method B; design: species or system Sprague Dawley rat; details: MK-801 site, Method B, male Sprague Dawley rat cortex, 5.0 nM [3H]MK-801; read-out: NMDAR Ki ± SEM
Procedure: Radioligand Binding—Method B. Affinity of the test compounds for NMDAR was determined in radioligand binding experiments with [^3H]MK-801 by WuXi AppTec (Hong Kong) Limited, under the conditions described in Table 13.

[5] = MLM stability (Low Activity); assay type: in vitro ADME, CD-1 mice; details: male, CD-1, mouse, liver microsomes, pH 7.4, Condition 1 (Low Activity), 0.50 mg protein/mL
Procedure: as §1, with “MLM” for “RLM”, “CD-1 mice” for “Sprague Dawley rats”, “M1000)” for “R1000)”
as §2

[6] = molecular target: T2, vesicular monoamine transporter 2 (VMAT2) (Homo sapiens, UniProt Q05940); experiment: Fluorescent substrate uptake inhibition, VMAT2; assay type: cell-based; details: for inhibition at 10 µM: transfected cells
T2 construct: expressed in transfected cells
T2 sequence (Q05940 whole entry, species assumed): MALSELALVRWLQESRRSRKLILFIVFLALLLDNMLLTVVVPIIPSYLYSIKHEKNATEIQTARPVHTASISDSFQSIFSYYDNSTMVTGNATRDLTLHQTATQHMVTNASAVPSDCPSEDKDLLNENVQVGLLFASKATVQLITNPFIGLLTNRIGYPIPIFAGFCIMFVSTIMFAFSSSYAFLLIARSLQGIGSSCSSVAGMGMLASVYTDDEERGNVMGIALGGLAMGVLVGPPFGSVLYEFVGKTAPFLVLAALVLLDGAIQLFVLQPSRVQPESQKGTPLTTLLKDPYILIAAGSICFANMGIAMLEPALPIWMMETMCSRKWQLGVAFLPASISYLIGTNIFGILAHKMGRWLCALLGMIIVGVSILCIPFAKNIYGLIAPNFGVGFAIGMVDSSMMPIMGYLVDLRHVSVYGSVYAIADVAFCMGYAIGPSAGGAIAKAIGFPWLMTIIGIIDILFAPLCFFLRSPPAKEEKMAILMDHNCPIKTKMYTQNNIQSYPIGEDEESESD
Procedure: as §3

[7] = molecular target: T3, dopamine transporter (DAT) (Homo sapiens, UniProt Q01959); experiment: Fluorescent substrate uptake inhibition, DAT; assay type: cell-based; details: for inhibition at 10 µM: CHO cells expressing DAT
T3 construct: expressed in transfected cells; host or cells: CHO (uptake)
T3 sequence (Q01959 whole entry, species assumed): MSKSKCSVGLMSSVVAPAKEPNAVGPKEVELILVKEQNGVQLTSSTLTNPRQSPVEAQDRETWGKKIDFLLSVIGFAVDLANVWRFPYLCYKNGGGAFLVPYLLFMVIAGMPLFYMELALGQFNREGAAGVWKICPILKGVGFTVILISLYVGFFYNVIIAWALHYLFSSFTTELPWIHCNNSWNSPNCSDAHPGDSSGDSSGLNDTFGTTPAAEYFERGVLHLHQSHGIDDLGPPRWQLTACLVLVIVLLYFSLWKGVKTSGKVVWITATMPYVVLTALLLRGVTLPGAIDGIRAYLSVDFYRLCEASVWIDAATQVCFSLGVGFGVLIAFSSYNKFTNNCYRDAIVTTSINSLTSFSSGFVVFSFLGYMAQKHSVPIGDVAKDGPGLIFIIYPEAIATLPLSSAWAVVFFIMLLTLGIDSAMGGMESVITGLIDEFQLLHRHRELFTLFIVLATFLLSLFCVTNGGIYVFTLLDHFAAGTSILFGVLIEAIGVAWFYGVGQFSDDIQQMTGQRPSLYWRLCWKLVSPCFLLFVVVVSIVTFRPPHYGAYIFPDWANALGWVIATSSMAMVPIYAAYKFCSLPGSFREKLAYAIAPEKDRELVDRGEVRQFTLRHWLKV
Procedure: as §3

[8] = molecular target: T4, serotonin transporter (SERT) (Homo sapiens, UniProt P31645); experiment: Fluorescent substrate uptake inhibition, SERT; assay type: cell-based; details: for inhibition at 10 µM: HEK293 cells expressing SERT
T4 construct: expressed in transfected cells; host or cells: HEK293
T4 sequence (P31645 whole entry, species assumed): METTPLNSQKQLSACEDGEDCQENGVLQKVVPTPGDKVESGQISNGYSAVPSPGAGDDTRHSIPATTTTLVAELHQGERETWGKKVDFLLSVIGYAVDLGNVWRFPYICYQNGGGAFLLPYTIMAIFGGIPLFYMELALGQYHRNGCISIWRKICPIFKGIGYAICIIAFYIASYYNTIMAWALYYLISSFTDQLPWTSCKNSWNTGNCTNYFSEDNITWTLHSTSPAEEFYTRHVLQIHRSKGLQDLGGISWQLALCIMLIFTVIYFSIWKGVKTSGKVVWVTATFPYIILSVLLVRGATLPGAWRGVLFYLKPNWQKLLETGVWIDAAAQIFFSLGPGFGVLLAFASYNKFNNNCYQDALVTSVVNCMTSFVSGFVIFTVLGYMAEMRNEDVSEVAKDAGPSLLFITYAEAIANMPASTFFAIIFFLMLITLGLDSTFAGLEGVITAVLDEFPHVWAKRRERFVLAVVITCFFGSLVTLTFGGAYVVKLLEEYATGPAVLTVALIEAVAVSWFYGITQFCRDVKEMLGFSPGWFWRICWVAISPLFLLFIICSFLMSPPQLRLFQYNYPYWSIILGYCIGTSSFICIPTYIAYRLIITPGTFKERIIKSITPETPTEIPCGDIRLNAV
Procedure: as §3

Row | Compound | half-life at 1 μM [1] | microsomal CLint at 1 μM [1] | half-life at 1 μM [2] | microsomal CLint at 1 μM [2] | IC50 [3] | Ki [4] | half-life at 1 μM [5] | microsomal CLint at 1 μM [5] | IC50 [6] | IC50 [7] | IC50 [8] | inhibition at 10 µM [3] | inhibition at 10 µM [6] | inhibition at 10 µM [7] | inhibition at 10 µM [8]
1 | O=C1CCCC[C@@]1(c1ccccc1)N1CCCC1 [Compound 27S, (S)-2-phenyl-2-(pyrrolidin-1-yl)cyclohexan-1-one] | 53.7 min | 25.8 µL/min/mg | > 145 min | < 9.6 µL/min/mg | 8.5 µM | 1.1 µM | 41 min | 33.8 µL/min/mg | 19.3 µM | 10.9 µM | 0.041 µM | – | – | – | –
2 | Cc1ccc(C2(N)CCCCC2=O)cc1 (racemic) [Compound 120rac, 2-amino-2-(p-tolyl)cyclohexan-1-one] | 3.6 min | 380 µL/min/mg | > 145 min | < 9.6 µL/min/mg | – | 23 µM | 112 min | 12.4 µL/min/mg | – | – | – | 7.1% | 41% | 5.3% | 27.5%
3 | O=C1CCCC[C@]1(c1ccccc1)N1CCOCC1 [Compound 31R, (R)-2-morpholino-2-phenylcyclohexan-1-one] | 6.8 min | 204 µL/min/mg | 45.7 min | 30.3 µL/min/mg | – | > 23 µM | 11.2 min | 124 µL/min/mg | – | – | – | 1.3% | -3.4% | 9.8% | -1.2%
4 | Cc1cccc(C2(N)CCCCC2=O)c1 (racemic) [Compound 118rac, 2-amino-2-(m-tolyl)cyclohexan-1-one] | 7.2 min | 192 µL/min/mg | > 145 min | < 9.6 µL/min/mg | – | 4.5 µM | 84.4 min | 16.4 µL/min/mg | – | – | – | 19.5% | 36.6% | 23.8% | 16.9%
5 | O=C1CCCC[C@@]1(c1ccccc1)N1CCOCC1 [Compound 31S, (S)-2-morpholino-2-phenylcyclohexan-1-one] | 9.6 min | 144 µL/min/mg | 61 min | 22.7 µL/min/mg | – | > 23 µM | 10.8 min | 128 µL/min/mg | – | – | – | 1.6% | -5.5% | 16.9% | -7.9%
6 | CNC1(c2ccc(C)cc2)CCCCC1=O (racemic) [Compound 119rac, 2-(methylamino)-2-(p-tolyl)cyclohexan-1-one] | 3.3 min | 417 µL/min/mg | > 145 min | < 9.6 µL/min/mg | – | 16.7 µM | 75.5 min | 18.4 µL/min/mg | – | – | – | 5% | 48.1% | 10.3% | 42%
7 | O=C1CCCC[C@]1(c1ccccc1)N1CCCC1 [Compound 27R, (R)-2-phenyl-2-(pyrrolidin-1-yl)cyclohexan-1-one] | 55.9 min | 24.8 µL/min/mg | > 145 min | < 9.6 µL/min/mg | 17.3 µM | 3.1 µM | 40.4 min | 34.3 µL/min/mg | 18.1 µM | 21 µM | 2.1 µM | – | – | – | –
8 | CNC1(c2cccc(C)c2)CCCCC1=O (racemic) [Compound 23rac, 2-(methylamino)-2-(m-tolyl)cyclohexan-1-one] | 3.6 min | 390 µL/min/mg | 133 min | 10.4 µL/min/mg | – | 4.6 µM | 52.7 min | 26.3 µL/min/mg | – | – | – | 8% | 16% | 8.5% | -1%
9 | CC1CN(C2(c3ccccc3)CCCCC2=O)C1 (racemic) [Compound 129rac, 2-(3-methylazetidin-1-yl)-2-phenyl-cyclohexan-1-one] | 24.1 min | 57.5 µL/min/mg | 134 min | 10.4 µL/min/mg | – | 0.52 µM | 9.3 min | 149 µL/min/mg | – | – | – | 10.6% | 31.9% | 35.8% | 28%
10 | NC1(c2ccc(F)cc2)CCCCC1=O (racemic) [Compound 117rac, 2-amino-2-(4-fluorophenyl)cyclohexan-1-one] | > 145 min | < 9.6 µL/min/mg | > 145 min | < 9.6 µL/min/mg | – | 8.4 µM | > 145 min | < 9.6 µL/min/mg | – | – | – | 5% | 17.1% | 6.8% | -0.91%
11 | COCCN[C@]1(c2ccccc2)CCCCC1=O [Compound 29S, (5)-2-((2-methoxyethyl)amino)-2-phenylcyclohexan-1-one] | 31.8 min | 43.6 µL/min/mg | > 145 min | < 9.6 µL/min/mg | – | 8.2 µM | 35.7 min | 35.8 µL/min/mg | – | – | – | 4% | -10.5% | 13.7% | -12.9%
12 | COCCN[C@@]1(c2ccccc2)CCCCC1=O [Compound 29R, (R)-2-((2-methoxyethyl)amino)-2-phenylcyclohexan-1-one] | 32.2 min | 43 µL/min/mg | > 145 min | < 9.6 µL/min/mg | – | > 23 µM | 30.1 min | 46.1 µL/min/mg | – | – | – | -16% | -31.9% | -7.1% | 19.6%
